Measurements: patent publication US20210038607A1, “OXADIAZOLYLTHIOPHENE DERIVATIVES USEFUL AS HISTONE DEACETYLASE INHIBITORS” (Karus Therapeutics Limited, priority 2018, published 2021)

What was measured:
[1] = target: T1, Recombinant human HDAC6 (Homo sapiens, UniProt Q9UBN7); assay: HDAC6 biochemical assay, AMC-labeled peptide substrate; settings: HDAC6; read-out: HDAC Isoform IC50 (nM) 6
T1 construct: full length, MW=159 kDa; GST (N); host or cells: Sf9 insect cells (baculovirus)
T1 sequence (Q9UBN7 1-1215): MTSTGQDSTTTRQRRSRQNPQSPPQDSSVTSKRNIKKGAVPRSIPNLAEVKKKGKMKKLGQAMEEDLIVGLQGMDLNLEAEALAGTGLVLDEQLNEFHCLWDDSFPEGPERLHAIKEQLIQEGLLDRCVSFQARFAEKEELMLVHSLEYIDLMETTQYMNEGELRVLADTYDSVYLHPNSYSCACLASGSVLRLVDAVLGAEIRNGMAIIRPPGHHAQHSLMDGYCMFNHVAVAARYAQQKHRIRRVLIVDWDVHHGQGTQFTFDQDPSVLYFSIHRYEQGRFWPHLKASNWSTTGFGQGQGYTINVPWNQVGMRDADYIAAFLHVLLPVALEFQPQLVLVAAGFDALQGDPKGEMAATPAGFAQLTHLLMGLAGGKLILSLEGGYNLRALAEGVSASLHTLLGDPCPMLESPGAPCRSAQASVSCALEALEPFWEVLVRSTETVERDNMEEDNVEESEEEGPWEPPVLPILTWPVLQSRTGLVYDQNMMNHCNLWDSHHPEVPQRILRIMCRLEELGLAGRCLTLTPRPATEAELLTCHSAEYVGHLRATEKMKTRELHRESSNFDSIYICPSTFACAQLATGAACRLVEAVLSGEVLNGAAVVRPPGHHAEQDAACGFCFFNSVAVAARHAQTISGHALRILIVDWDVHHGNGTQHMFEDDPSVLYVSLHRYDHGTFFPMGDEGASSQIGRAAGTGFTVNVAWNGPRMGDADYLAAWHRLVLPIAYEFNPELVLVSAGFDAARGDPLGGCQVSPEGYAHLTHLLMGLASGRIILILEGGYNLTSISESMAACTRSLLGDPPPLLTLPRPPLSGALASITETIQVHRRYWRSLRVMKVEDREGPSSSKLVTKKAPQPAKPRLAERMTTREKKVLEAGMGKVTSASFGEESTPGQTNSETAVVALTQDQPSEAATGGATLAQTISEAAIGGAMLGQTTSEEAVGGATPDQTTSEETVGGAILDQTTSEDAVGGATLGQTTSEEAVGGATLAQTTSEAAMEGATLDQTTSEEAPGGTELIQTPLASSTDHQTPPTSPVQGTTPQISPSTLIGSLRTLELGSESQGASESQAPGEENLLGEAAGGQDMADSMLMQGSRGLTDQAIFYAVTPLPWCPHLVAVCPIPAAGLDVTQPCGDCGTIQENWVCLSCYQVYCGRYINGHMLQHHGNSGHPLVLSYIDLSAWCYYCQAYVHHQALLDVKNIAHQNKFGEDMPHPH
In short: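 Two-step fluorogenic read-out: enzyme deacetylates 50 μM RHKK(Ac)AMC for 1 h at 30° C in pH 8.0 Tris buffer with BSA and 1% DMSO, then developer cleavage gives signal at Ex 360/Em 460. Enzyme: 0.3 ng/ul recombinant full-length human HDAC6, GST-tagged, Sf9-expressed.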

[2] = target: T2, Human HDAC10 (Homo sapiens, UniProt Q969S8); assay: HDAC10 biochemical assay, AMC-labeled peptide substrate; settings: read-out: HDAC Isoform IC50 (nM) 10
T2 construct: Human HDAC10 (a.a. 1-481); GST (N); His (C); host or cells: baculovirus expression system
T2 sequence (Q969S8 1-481): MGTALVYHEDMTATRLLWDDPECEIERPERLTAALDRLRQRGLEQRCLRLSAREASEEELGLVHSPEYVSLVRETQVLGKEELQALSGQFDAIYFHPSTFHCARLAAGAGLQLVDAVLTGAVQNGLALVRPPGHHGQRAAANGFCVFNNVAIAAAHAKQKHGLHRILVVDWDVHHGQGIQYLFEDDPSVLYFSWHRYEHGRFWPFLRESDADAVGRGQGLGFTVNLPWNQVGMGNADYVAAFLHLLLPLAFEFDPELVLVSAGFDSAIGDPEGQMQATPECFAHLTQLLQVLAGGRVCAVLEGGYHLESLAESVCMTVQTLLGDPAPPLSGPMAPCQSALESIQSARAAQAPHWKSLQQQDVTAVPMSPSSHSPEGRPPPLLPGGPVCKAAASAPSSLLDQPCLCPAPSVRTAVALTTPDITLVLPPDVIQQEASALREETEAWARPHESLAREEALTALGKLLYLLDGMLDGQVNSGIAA
In short: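 Two-step fluorogenic read-out (Ex/Em 360/460) after developer digestion of deacetylated RHKK(Ac)AMC (50 μM). Deacetylation ran 2 h at 30 °C with 12 ng/ul HDAC10 (aa 1-481, GST/His tags, baculovirus) in Tris-HCl pH 8.0, BSA, 1% DMSO.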

[3] = target: T3, Human HDAC1 (Homo sapiens, UniProt Q13547); assay: HDAC1 biochemical assay, AMC-labeled peptide substrate; settings: read-out: HDAC Isoform IC50 (nM) 1
T3 construct: full length with C-terminal His-tag and C-terminal FLAG-tag; His (C); FLAG (C); host or cells: baculovirus expression system
T3 sequence (Q13547 whole entry, canonical isoform): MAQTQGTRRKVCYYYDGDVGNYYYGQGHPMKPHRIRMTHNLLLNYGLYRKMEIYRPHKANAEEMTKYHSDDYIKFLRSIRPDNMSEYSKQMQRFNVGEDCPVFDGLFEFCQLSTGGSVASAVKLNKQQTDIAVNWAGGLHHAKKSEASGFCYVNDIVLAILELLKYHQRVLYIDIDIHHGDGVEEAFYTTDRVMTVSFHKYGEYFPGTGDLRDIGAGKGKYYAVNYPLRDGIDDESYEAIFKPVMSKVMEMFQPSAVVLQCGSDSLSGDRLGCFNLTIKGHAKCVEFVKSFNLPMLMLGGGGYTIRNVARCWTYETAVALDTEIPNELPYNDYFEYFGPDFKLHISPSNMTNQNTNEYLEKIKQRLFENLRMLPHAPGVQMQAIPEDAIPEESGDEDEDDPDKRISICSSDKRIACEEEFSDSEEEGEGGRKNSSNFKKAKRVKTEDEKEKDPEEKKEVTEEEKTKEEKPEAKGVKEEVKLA
In short: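 Two-step fluorogenic read: HDAC1 deacetylates 50 μM acetyl-lysine AMC peptide RHKK(Ac)AMC for 1 h at 30° C (pH 8.0, 1% DMSO, with compound), then developer digests the product for fluorescence at Ex/Em 360/460. Enzyme is full-length human, His/FLAG-tagged, insect-cell expressed, at 0.3 ng/ul.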

Structure (SMILES) | IC50 [1] | IC50 [2] | IC50 [3]
CS(=O)(=O)c1nccc(N(Cc2ccc(-c3noc(C(F)(F)F)n3)s2)c2cnccn2)n1 [Example CE, 2-Methanesulfonyl-N-(pyrazin-2-yl)-N-({5-[5-(trifluoromethyl)-1,2,4-oxadiazol-3-yl]thiophen-2-yl}methyl)pyrimidin-4-amine] | ≤ 500 nM |  | ≤ 10000 nM
CS(=O)(=O)c1ccc(N(Cc2ccc(-c3noc(C(F)(F)F)n3)s2)c2cnccn2)nn1 [Example DL, 6-Methanesulfonyl-N-(pyrazin-2-yl)-N-({5-[5-(trifluoromethyl)-1,2,4-oxadiazol-3-yl]thiophen-2-yl}methyl)pyridazin-3-amine] | ≤ 500 nM | > 10000 nM | ≤ 10000 nM
FC(F)(F)c1nc(-c2ccc(CN(c3cncnc3)c3cnccn3)s2)no1 [Example CR, N-(Pyrazin-2-yl)-N-({5-[5-(trifluoromethyl)-1,2,4-oxadiazol-3-yl]thiophen-2-yl}methyl)pyrimidin-5-amine] | ≤ 500 nM | > 10000 nM | > 10000 nM
FC(F)(F)c1nc(-c2ccc(CN(c3cnccn3)c3ccc(N4CCCC4)nn3)s2)no1 [Example DI, N-(Pyrazin-2-yl)-6-(pyrrolidin-1-yl)-N-({5-[5-(trifluoromethyl)-1,2,4-oxadiazol-3-yl]thiophen-2-yl}methyl)pyridazin-3-amine] | ≤ 500 nM | > 10000 nM | ≤ 10000 nM
FC(F)(F)c1ccc(N(Cc2ccc(-c3noc(C(F)(F)F)n3)s2)c2cnccn2)nn1 [Example DH, N-(Pyrazin-2-yl)-6-(trifluoromethyl)-N-({5-[5-(trifluoromethyl)-1,2,4-oxadiazol-3-yl]thiophen-2-yl}methyl)pyridazin-3-amine] | ≤ 500 nM | > 10000 nM | ≤ 10000 nM

Other lines, results leading:

IC50 [1] | IC50 [2] | IC50 [3] | Structure (SMILES)
≤ 500 nM | > 10000 nM | > 10000 nM | FC(F)(F)c1nc(-c2ccc(CN(c3ccncn3)c3cnccn3)s2)no1 [Example BZ, N-(Pyrazin-2-yl)-N-({5-[5-(trifluoromethyl)-1,2,4-oxadiazol-3-yl]thiophen-2-yl}methyl)pyrimidin-4-amine]
≤ 500 nM | > 10000 nM | > 10000 nM | FC(F)(F)c1nc(-c2ccc(CN(c3ccccn3)c3cnccn3)s2)no1 [Example V, N-(Pyridin-2-yl)-N-({5-[5-(trifluoromethyl)-1,2,4-oxadiazol-3-yl]thiophen-2-yl}methyl)pyrazin-2-amine]
